Measurements as given in US20100267561A1, “HERBICIDAL PYRIDAZINONE DERIVATIVES” (priority 2007, published 2010).

Experiments:
Format in all cases: in vivo
[1] = tested on: canola (Brassica rapa); assay: Test C pre-/postemergence plant response; conditions: Preemergence
Summary of the method: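 Formulated in a surfactant-containing non-phytotoxic solvent, compounds were tested under controlled growth conditions as preemergence and postemergence treatments. Ratings from 0 (no effect) to 100 (complete control) were assigned visually relative to controls 15 to 25 days later.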

[2] = tested on: annual bluegrass (Poa annua); assay: Test E pre-/postemergence plant response; conditions: scale 0 to 100
Summary of the method: (§1)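 Plant response was judged by eye relative to controls, 0 meaning no effect and 100 complete control, after 14 to 21 days under greenhouse conditions. Compound was formulated in a non-phytotoxic solvent mixture with surfactant.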

[3] = tested on: barnyardgrass (Echinochloa crus-galli); assay: Test E pre-/postemergence plant response; conditions: scale 0 to 100
Summary of the method: as §1

[4] = tested on: broadleaf signalgrass (Brachiaria platyphylla); assay: Test E pre-/postemergence plant response; conditions: scale 0 to 100
Summary of the method: as §1

[5] = tested on: common groundsel (Senecio vulgaris); assay: Test E pre-/postemergence plant response; conditions: scale 0 to 100
Summary of the method: as §1

[6] = tested on: common mallow (Malva sylvestris); assay: Test E pre-/postemergence plant response; conditions: scale 0 to 100
Summary of the method: as §1

[7] = tested on: guineagrass (Panicum maximum); assay: Test E pre-/postemergence plant response; conditions: scale 0 to 100
Summary of the method: as §1

[8] = tested on: itchgrass (Rottboellia cochinchinensis); assay: Test E pre-/postemergence plant response; conditions: scale 0 to 100
Summary of the method: as §1

[9] = tested on: naked crabgrass (Digitaria nuda); assay: Test E pre-/postemergence plant response; conditions: scale 0 to 100
Summary of the method: as §1

[10] = tested on: pitted morningglory (Ipomoea lacunosa); assay: Test E pre-/postemergence plant response; conditions: scale 0 to 100
Summary of the method: as §1

[11] = tested on: quackgrass (Elytrigia repens); assay: Test E pre-/postemergence plant response; conditions: scale 0 to 100
Summary of the method: as §1

[12] = tested on: surinam grass (Brachiaria decumbens); assay: Test E pre-/postemergence plant response; conditions: scale 0 to 100
Summary of the method: as §1

## Cc1cc(-c2ccc(Cl)cc2)nn1-c1c(OC(=O)C(C)C)cnn(C)c1=O [Compound 34]
[1]; 8 g ai/ha, scale 0 to 100 (0 no effect, 100 complete control)
  Plant response rating, Canola: 0
[1]; 16 g ai/ha, scale 0 to 100 (0 no effect, 100 complete control)
  Plant response rating, Canola: 0
[1]; 31 g ai/ha, scale 0 to 100 (0 no effect, 100 complete control)
  Plant response rating, Canola: 0
[1]; 62 g ai/ha, scale 0 to 100, 0 no effect, 100 complete control
  Plant response rating, Canola: 0
[2]; 16 g ai/ha, Preemergence
  Plant response rating, Bluegrass: 0
[2]; 31 g ai/ha, Preemergence
  Plant response rating, Bluegrass: 0
[2]; 62 g ai/ha, Preemergence
  Plant response rating, Bluegrass: 15
[2]; Postemergence, 8 g ai/ha
  Plant response rating, Bluegrass: 0
[2]; Postemergence, 16 g ai/ha
  Plant response rating, Bluegrass: 0
[2]; Postemergence, 31 g ai/ha
  Plant response rating, Bluegrass: 0
[2]; Postemergence, 62 g ai/ha
  Plant response rating, Bluegrass: 0
[3]; 16 g ai/ha, Preemergence
  Plant response rating, Barnyardgrass: 80
[3]; 31 g ai/ha, Preemergence
  Plant response rating, Barnyardgrass: 100
[3]; 62 g ai/ha, Preemergence
  Plant response rating, Barnyardgrass: 100
[3]; Postemergence, 8 g ai/ha
  Plant response rating, Barnyardgrass: 95
[3]; Postemergence, 16 g ai/ha
  Plant response rating, Barnyardgrass: 100
[3]; Postemergence, 31 g ai/ha
  Plant response rating, Barnyardgrass: 100
[3]; Postemergence, 62 g ai/ha
  Plant response rating, Barnyardgrass: 100
[4]; 16 g ai/ha, Preemergence
  Plant response rating, Signalgrass: 65
[4]; 31 g ai/ha, Preemergence
  Plant response rating, Signalgrass: 90
[4]; 62 g ai/ha, Preemergence
  Plant response rating, Signalgrass: 100
[4]; Postemergence, 8 g ai/ha
  Plant response rating, Signalgrass: 75
[4]; Postemergence, 16 g ai/ha
  Plant response rating, Signalgrass: 85
[4]; Postemergence, 31 g ai/ha
  Plant response rating, Signalgrass: 95
[4]; Postemergence, 62 g ai/ha
  Plant response rating, Signalgrass: 100
[5]; 16 g ai/ha, Preemergence
  Plant response rating, Groundsel: 0
[5]; 31 g ai/ha, Preemergence
  Plant response rating, Groundsel: 0
[5]; 62 g ai/ha, Preemergence
  Plant response rating, Groundsel: 0
[5]; Postemergence, 8 g ai/ha
  Plant response rating, Groundsel: 0
[5]; Postemergence, 16 g ai/ha
  Plant response rating, Groundsel: 0
[5]; Postemergence, 31 g ai/ha
  Plant response rating, Groundsel: 0
[5]; Postemergence, 62 g ai/ha
  Plant response rating, Groundsel: 0
[6]; 16 g ai/ha, Preemergence
  Plant response rating, Mallow: 0
[6]; 31 g ai/ha, Preemergence
  Plant response rating, Mallow: 0
[6]; 62 g ai/ha, Preemergence
  Plant response rating, Mallow: 0
[6]; Postemergence, 8 g ai/ha
  Plant response rating, Mallow: 0
[6]; Postemergence, 16 g ai/ha
  Plant response rating, Mallow: 0
[6]; Postemergence, 31 g ai/ha
  Plant response rating, Mallow: 0
[6]; Postemergence, 62 g ai/ha
  Plant response rating, Mallow: 0
[7]; 16 g ai/ha, Preemergence
  Plant response rating, Guineagrass: 100
[7]; 31 g ai/ha, Preemergence
  Plant response rating, Guineagrass: 100
[7]; 62 g ai/ha, Preemergence
  Plant response rating, Guineagrass: 100
[7]; Postemergence, 8 g ai/ha
  Plant response rating, Guineagrass: 95
[7]; Postemergence, 16 g ai/ha
  Plant response rating, Guineagrass: 95
[7]; Postemergence, 31 g ai/ha
  Plant response rating, Guineagrass: 100
[7]; Postemergence, 62 g ai/ha
  Plant response rating, Guineagrass: 100
[8]; 16 g ai/ha, Preemergence
  Plant response rating, Itchgrass: 80
[8]; 31 g ai/ha, Preemergence
  Plant response rating, Itchgrass: 85
[8]; 62 g ai/ha, Preemergence
  Plant response rating, Itchgrass: 90
[8]; Postemergence, 8 g ai/ha
  Plant response rating, Itchgrass: 70
[8]; Postemergence, 16 g ai/ha
  Plant response rating, Itchgrass: 80
[8]; Postemergence, 31 g ai/ha
  Plant response rating, Itchgrass: 95
[8]; Postemergence, 62 g ai/ha
  Plant response rating, Itchgrass: 95
[9]; 16 g ai/ha, Preemergence
  Plant response rating, Crabgrass, Naked: 100
[9]; 31 g ai/ha, Preemergence
  Plant response rating, Crabgrass, Naked: 100
[9]; 62 g ai/ha, Preemergence
  Plant response rating, Crabgrass, Naked: 100
[9]; Postemergence, 8 g ai/ha
  Plant response rating, Crabgrass, Naked: 40
[9]; Postemergence, 16 g ai/ha
  Plant response rating, Crabgrass, Naked: 80
[9]; Postemergence, 62 g ai/ha
  Plant response rating, Crabgrass, Naked: 100
[10]; 16 g ai/ha, Preemergence
  Plant response rating, Morningglory: 0
[10]; 31 g ai/ha, Preemergence
  Plant response rating, Morningglory: 0
[10]; 62 g ai/ha, Preemergence
  Plant response rating, Morningglory: 0
[10]; Postemergence, 8 g ai/ha
  Plant response rating, Morningglory: 0
[10]; Postemergence, 16 g ai/ha
  Plant response rating, Morningglory: 0
[10]; Postemergence, 31 g ai/ha
  Plant response rating, Morningglory: 0
[10]; Postemergence, 62 g ai/ha
  Plant response rating, Morningglory: 30
[11]; 16 g ai/ha, Preemergence
  Plant response rating, Quackgrass: 20
[11]; 31 g ai/ha, Preemergence
  Plant response rating, Quackgrass: 50
[11]; 62 g ai/ha, Preemergence
  Plant response rating, Quackgrass: 70
[11]; Postemergence, 8 g ai/ha
  Plant response rating, Quackgrass: 0
[11]; Postemergence, 16 g ai/ha
  Plant response rating, Quackgrass: 0
[11]; Postemergence, 31 g ai/ha
  Plant response rating, Quackgrass: 30
[11]; Postemergence, 62 g ai/ha
  Plant response rating, Quackgrass: 40
[12]; 16 g ai/ha, Preemergence
  Plant response rating, Surinam Grass: 98
[12]; 31 g ai/ha, Preemergence
  Plant response rating, Surinam Grass: 100
[12]; 62 g ai/ha, Preemergence
  Plant response rating, Surinam Grass: 100
[12]; Postemergence, 8 g ai/ha
  Plant response rating, Surinam Grass: 90
[12]; Postemergence, 16 g ai/ha
  Plant response rating, Surinam Grass: 98
[12]; Postemergence, 31 g ai/ha
  Plant response rating, Surinam Grass: 100
[12]; Postemergence, 62 g ai/ha
  Plant response rating, Surinam Grass: 100
